We go through ten compounds from ChEMBL document CHEMBL5042554, “Discovery of Pyridone-Substituted Triazolopyrimidine Dual A2A/A1 AR Antagonists for the Treatment of Ischemic Stroke” (ACS Med Chem Lett, 2022).

For experiment [1], the target named is T1, Adenosine receptor A2a (Homo sapiens, UniProt P29274). The experiment is described as follows: Displacement of [3H] ZM241385 from human recombinant A2A adenosine receptor expressed in HeLa cells incubated for 30 mins by radioligand binding competition assay. The class given is cell-based.
The target of the next experiment is T2, Adenosine receptor A3 (Homo sapiens, UniProt P0DMS8).
T2 sequence (P0DMS8 whole entry): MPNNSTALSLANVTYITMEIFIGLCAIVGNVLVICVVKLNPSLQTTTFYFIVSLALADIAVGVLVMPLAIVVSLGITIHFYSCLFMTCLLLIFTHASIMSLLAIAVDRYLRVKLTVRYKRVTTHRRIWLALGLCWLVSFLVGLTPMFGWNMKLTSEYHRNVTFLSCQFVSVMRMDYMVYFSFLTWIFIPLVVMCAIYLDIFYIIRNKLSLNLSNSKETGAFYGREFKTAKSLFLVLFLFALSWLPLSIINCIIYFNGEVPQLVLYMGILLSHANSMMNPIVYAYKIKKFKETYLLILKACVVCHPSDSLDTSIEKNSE
The experiment is described as follows: Displacement of [3H] NECA from human recombinant A3 receptor expressed in HeLa cells incubated for 180 mins by radioligand binding competition assay. The class given is cell-based. On the technique in general: In a radioligand displacement assay an active substance lowers the binding of a labelled ligand.

The target in a further experiment is T3, Adenosine receptor A2b (Homo sapiens, UniProt P29275).
T3 sequence (P29275 whole entry): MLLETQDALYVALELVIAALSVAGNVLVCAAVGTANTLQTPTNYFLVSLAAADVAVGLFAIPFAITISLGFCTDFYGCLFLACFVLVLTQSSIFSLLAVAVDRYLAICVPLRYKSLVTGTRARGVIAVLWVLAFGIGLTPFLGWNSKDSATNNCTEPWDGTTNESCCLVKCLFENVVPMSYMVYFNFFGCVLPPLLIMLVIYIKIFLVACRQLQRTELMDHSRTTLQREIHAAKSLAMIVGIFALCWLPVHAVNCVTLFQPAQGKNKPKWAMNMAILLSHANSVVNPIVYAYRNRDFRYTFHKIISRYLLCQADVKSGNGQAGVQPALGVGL
Nature of the experiment: Displacement of [3H] DPCPX from human recombinant A2B adenosine receptor expressed in HEK293 cells incubated for 30 mins by radioligand binding competition assay. The class given is cell-based.

For experiment [2], the target named is T4, Adenosine receptor A1 (Homo sapiens, UniProt P30542).
T4 sequence (P30542 whole entry): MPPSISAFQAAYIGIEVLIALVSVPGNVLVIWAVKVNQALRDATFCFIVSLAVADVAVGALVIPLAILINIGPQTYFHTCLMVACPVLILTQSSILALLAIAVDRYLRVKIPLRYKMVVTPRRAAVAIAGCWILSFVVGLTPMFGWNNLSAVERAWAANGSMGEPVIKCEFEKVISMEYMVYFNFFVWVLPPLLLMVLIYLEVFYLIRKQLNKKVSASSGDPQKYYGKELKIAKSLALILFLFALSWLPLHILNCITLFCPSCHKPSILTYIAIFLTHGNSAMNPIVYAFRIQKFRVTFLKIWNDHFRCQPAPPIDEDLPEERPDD
The experiment is described as follows: Displacement of [3H] DPCPX from human recombinant A1 adenosine receptor expressed in CHO cells incubated for 60 mins by radioligand binding competition assay. The class given is cell-based.

Experiment [3] addresses T4, Adenosine receptor A1. The experiment is described as follows: Antagonist activity at human recombinant adenosine A1 receptor transfected in HEK293 cells co-transfected with Galpha15/16 assessed as intracellular calcium change incubated for 10 mins by microplate reader method. The class given is functional, cell-based. (Calcium assays in cells follow changes in intracellular calcium, usually with a dye or a luminescent sensor.)

In experiment [4] the target is T1, Adenosine receptor A2a. Nature of the experiment: Antagonist activity at human recombinant adenosine A2A receptor transfected in HEK293 cells co-transfected with Galpha15/16 assessed as intracellular calcium change incubated for 10 mins by microplate reader method. The class given is functional, cell-based.

Bounds are passed on as bounds.

T1 sequence (P29274 whole entry): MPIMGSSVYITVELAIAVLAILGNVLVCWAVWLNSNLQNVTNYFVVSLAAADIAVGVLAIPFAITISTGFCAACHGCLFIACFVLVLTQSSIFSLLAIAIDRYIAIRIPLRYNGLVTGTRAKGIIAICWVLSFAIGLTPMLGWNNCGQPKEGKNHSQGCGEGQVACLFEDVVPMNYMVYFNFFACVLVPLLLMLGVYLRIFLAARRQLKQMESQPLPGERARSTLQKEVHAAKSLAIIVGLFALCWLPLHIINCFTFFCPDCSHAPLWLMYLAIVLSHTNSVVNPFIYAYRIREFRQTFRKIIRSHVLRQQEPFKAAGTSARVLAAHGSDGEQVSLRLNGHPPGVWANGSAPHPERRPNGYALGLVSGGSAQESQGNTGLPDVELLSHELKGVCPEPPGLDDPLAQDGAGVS

The term Ki denotes the dissociation constant of the complex between target and ligand, obtained from inhibition or displacement. In the case of `Cn1cc(-c2cnc(N)n3nc(-c4nccs4)nc23)ccc1=O`, the Ki on Adenosine receptor A2a [1] is 84.6 nM; at Adenosine receptor A3, more than 10 µM; on Adenosine receptor A2b it was 1.59 µM; on Adenosine receptor A1 [2], 78 nM.
Turning to `Cc1cccc(-c2nc3c(-c4ccc(=O)n(C)c4)cnc(N)n3n2)n1`, the Ki at Adenosine receptor A2a [1] is 3770 nM; on Adenosine receptor A3, more than 10 µM; on Adenosine receptor A2b, more than 10 µM; at Adenosine receptor A1 [2], 1720 nM.
Consider `Cc1cnc(-c2nc3c(-c4ccc(=O)n(C)c4)cnc(N)n3n2)s1`, for which the Ki was 43.9 nM on Adenosine receptor A2a [1], 2.93 µM at Adenosine receptor A3, 9.92 µM on Adenosine receptor A2b and 21.9 nM at Adenosine receptor A1 [2].
On the same counts, the results for `Cc1ccc(-c2nc3c(-c4ccc(=O)n(C)c4)cnc(N)n3n2)o1` are 448 nM, 2.96 µM, more than 10 µM and 88.4 nM.
`Cn1nccc1-c1nc2c(-c3ccc(=O)n(C)c3)cnc(N)n2n1`: the Ki is 797 nM on Adenosine receptor A2a [1], more than 10 µM on Adenosine receptor A3, more than 10 µM on Adenosine receptor A2b and 2970 nM at Adenosine receptor A1 [2].
Turning to `Cn1cc(-c2cnc(N)n3nc(-c4ccccn4)nc23)ccc1=O`, the Ki on Adenosine receptor A2a [1] is 62.4 nM; on Adenosine receptor A3, more than 10 µM; at Adenosine receptor A2b it was more than 10 µM; on Adenosine receptor A1 [2], 37.6 nM.
`Cn1ccc(-c2nc3c(-c4ccc(=O)n(C)c4)cnc(N)n3n2)n1`: the Ki on Adenosine receptor A2a [1] is 3430 nM; at Adenosine receptor A3 it was more than 10 µM; at Adenosine receptor A2b, more than 10 µM; on Adenosine receptor A1 [2] it was 722 nM.
Turning to `Cc1csc(-c2nc3c(-c4ccc(=O)n(C)c4)cnc(N)n3n2)n1`, the Ki at Adenosine receptor A2a [1] was 1030 nM; on Adenosine receptor A3, more than 10 µM; on Adenosine receptor A2b it was more than 10 µM; on Adenosine receptor A1 [2], 926 nM.
For the compound `Cn1cc(-c2cnc(N)nc2-c2ccco2)ccc1=O`, the Ki is 26.9 nM at Adenosine receptor A2a [1], more than 10 µM on Adenosine receptor A3, 0.0589 µM on Adenosine receptor A2b and 88.6 nM at Adenosine receptor A1 [2].
By IC50 is commonly meant the point on the concentration scale where inhibition reaches its midpoint. Regarding `Cn1cc(-c2cnc(N)n3nc(-c4ccco4)nc23)ccc1=O`, the results for the Ki on Adenosine receptor A2a [1], at Adenosine receptor A2b and at Adenosine receptor A1 [2] were 5.58 nM, 0.491 µM and 24.2 nM, respectively. Besides, the IC50 at Adenosine receptor A1 [3] stood at 25.9 nM; at Adenosine receptor A2a [4], 5.72 nM.
